# Reference: patent US12478624B2, “Heterocyclic derivatives, pharmaceutical compositions and their use in the treatment or amelioration of cancer” (Tolremo Therapeutics AG, priority 2019, dated 2025)
# Tests used:
# OPM-2 = test: Assay 2: multiple myeloma cellular efficacy, PrestoBlue cell proliferation/survival; assay type: cell-based; conditions: Homo sapiens, 96 h, OPM-2 cells, 4 days
# Protocol: Multiple Myeloma Cellular Efficacy:
# 10000 OPM-2 (ACC50; DSMZ) were plated into wells of a 384 well plate (Greiner 781090). Cells were treated for 4 days with a dose range of compound or vehicle. At the end of the experiment cells were stained directly with PrestoBlue (ThermoFisher Scietific; A13262) for 2 hours at 37° C. in a humidified incubator according to manufactor's instruction. To assess the relative cell number the PrestoBlue signal was measured using either a TecanM1000Pro reader or a Tecan Sparks reader following the manufactor's instructions. Background (no cells) values were subtracted and set in relation to the vehicle control. To assess the EC50 of each compound the relative fluorescence value was plotted against the compound concentration after log transformation. Data were fitted in a nonlinear manner with a variable slope (four parameters) using graphpad prism software. Cellular efficacy of compounds was evaluated in the multiple myeloma cell line OPM-2 using the cell proliferation/survival assay PrestoBlue. EC50 values are classified as indicated below.
# A375 cells = test: Assay 1: A375 cells treated with S1152, S1008 and compound, immunofluorescence (sc-365823) signal; assay type: cell-based; conditions: 1 μM S1152 + 0.5 μM S1008, one day
# Protocol: One thousand four hundred A375 cells were seeded in each well of a 384 well microplate. One day later they were treated with 1 μM S1152 (Selleckchem) in dimethyl sulfoxide, 0.5 μM S1008 (Selleckchem) and dose ranges of invention compounds for one day in Dulbecco's Modified Eagle's Medium supplemented with 10% fetal calf serum and 2 mM (2S)-2-amino-4-carbamoylbutanoic acid. Wells were incubated with 4% polyoxymethylene (Sigma Aldrich 158127) at ambient temperature. […] After one minute phosphate-buffered saline was replaced with 0.2% polyethylene glycol octylphenyl ether in phosphate-buffered saline. […] 1% aminoethanoic acid in phosphate-buffered saline was added for ten minutes at ambient temperature. […] After one hour at ambient temperature in the dark, signal in wells was measured with a Acumen Cellista. 3,8-Diamino-5-[3-(diethylmethylammonio)propyl]-6-phenylphenanthridinium diiodide-positive objects were defined in FL3 (565-600 nm) with a perimeter between 50-800 μm and a total intensity of 10000-1000000 FLU. Signal in FL2 (500-530 nm) was measured in defined objects. A normalized ratio of total In FL2 over total In FL3 staining was log transformed. A non-linear regression (variable slope, 4 parameters) was used to calculate EC50 values using GraphPad Prism (Version 7.0d).
# In an alternative procedure, assay 1 has been affected by changing the counteratain. […] Cells were incubated with 0.5 μg/ml 2-(4-Amidinophenyl)-6-indolecarbamidine dihydrochloride, 4′,6-Diamidino-2-phenylindole dihydrochloride (Sigma D9542) in phosphate-buffered saline for at least 30 minutes at ambient temperature in the dark. A Celigo Imager (Nexcelom) was used to acquire images in the blue and green channel. The blue channel was used as a mask to define the area for the green signal. The average integrated intensity of the green signal was normalized and a non-linear regression (variable slope, 4 parameter) was used to calculate the EC50 values using GraphPad Prism (Version 8.4)
EC50 (A375 cells),Structure (SMILES),other results
< 200 nM,"CC(=O)N1C[C@H](c2nc(Nc3cccc4c3cnn4C)cc(-c3cnccn3)n2)CC[C@@H]1C [Compound 00049, 1-((2S,5R)-2-methyl-5-(4-((1-methyl-1H-indazol-4-yl)amino)-6-(pyrazin-2-yl)pyrimidin-2-yl)piperidin-1-yl)ethan-1-one]",EC50 (OPM-2): < 200 nM
,"CC(=O)N1C[C@H](c2nc(Nc3cc(F)cc(-c4cnn(C)c4)c3)cc(-c3cncc(N4C[C@@H]5C[C@H]4CO5)c3)n2)CC[C@@H]1C [Compound 00090, 1-((2S,5R)-5-(4-(5-((1S,4S)-2-oxa-5-azabicyclo-[2.2.1]heptan-5-yl)pyridin-3-yl)-6-((3-fluoro-5-(1-methyl-1H-pyrazol-4-yl)phenyl)amino)pyrimidin-2-yl)-2-methylpiperidin-1-yl)ethan-1-one]",EC50 (OPM-2): < 200 nM
,COc1cncc(-c2cc(Nc3cccc(F)c3)nc([C@H]3CC[C@@H](C)N(C(C)=O)C3)n2)c1 [Compound 00003],EC50 (OPM-2): > 10000 nM
< 200 nM,"CC(=O)N1C[C@H](c2nc(Nc3cc(F)cc(-c4nnco4)c3)cc(-c3cccnc3)n2)CC[C@@H]1C [Compound 00166, 1-((2S,5R)-5-(4-((3-fluoro-5-(1,3,4-oxadiazol-2-yl)phenyl)amino)-6-(pyridin-3-yl)pyrimidin-2-yl)-2-methylpiperidin-1-yl)ethan-1-one]",
< 200 nM,"CC(=O)N1C[C@H](c2nc(Nc3cccc(N4CCCC4=O)c3)cc(-c3cccnc3)n2)CC[C@@H]1C [Compound 00048, 1-(3-((2-((3R,6S)-1-acetyl-6-methylpiperidin-3-yl)-6-(pyridin-3-yl)pyrimidin-4-yl)amino)phenyl)pyrrolidin-2-one]",
200 to 1000 nM,"CC(=O)N1C[C@H](c2nc(Nc3ccc4nc(C)oc4c3)cc(-c3cccnc3)n2)CC[C@@H]1C [Compound 00037, 1-((2S,5R)-2-methyl-5-(4-((2-methylbenzo[d]oxazol-6-yl)amino)-6-(pyridin-3-yl)pyrimidin-2-yl)piperidin-1-yl)ethan-1-one]",
< 200 nM,CC(=O)N1C[C@H](c2nc(Nc3cccc(F)c3)cc(-c3cncc(O)c3)n2)CC[C@@H]1C (stereo in doubt) [Compound 00005],
< 200 nM,"CC(=O)N1C[C@H](c2nc(Nc3cccc(O)c3)cc(-c3cccnc3)n2)CC[C@@H]1C [Compound 00075, 1-((2S,5R)-5-(4-((3-hydroxyphenyl)amino)-6-(pyridin-3-yl)pyrimidin-2-yl)-2-methylpiperidin-1-yl)ethan-1-one]",
,"CC[C@H]1CC[C@@H](c2nc(Nc3cccc(F)c3)cc(-c3cccnc3)n2)CN1C(C)=O (racemic) [Compound 00020, (+/−)-c/s-1-(2-ethyl-5-(4-((3-fluorophenyl)amino)-6-(pyridin-3-yl)pyrimidin-2-yl)piperidin-1-yl)ethan-1-one]","EC50 (A375 cells; Homo sapiens, A-375, 24 h): 1000 to 10000 nM"
< 200 nM,[2H]C([2H])([2H])[C@H]1CC[C@@H](c2nc(Nc3cncc(C)c3)cc(-c3cnccn3)n2)CN1C(C)=O [Compound 000012],
< 200 nM,"CC(=O)N1C[C@H](c2nc(Nc3ccc4[nH]ccc4c3)cc(-c3cccnc3)n2)CC[C@@H]1C [Compound 00028, 1-((2S,5R)-5-(4-((1H-indol-5-yl)amino)-6-(pyridin-3-yl)pyrimidin-2-yl)-2-methylpiperidin-1-yl)ethan-1-one]",
,"CC(=O)N1C[C@H](c2nc(Nc3cccc(F)c3)cc(-c3cccnc3)n2)CC[C@H]1C [Compound 00015, (+/+)-trans-1-(5-(4-((3-fluorophenyl)amino)-6-(pyridin-3-yl)pyrimidin-2-yl)-2-methylpiperidin-1-yl)ethan-1-one]","EC50 (A375 cells; Homo sapiens, A-375, 24 h): > 10000 nM"
> 10000 nM,"COc1cc(-c2cc(Nc3ccnc(C)c3)nc([C@@H]3CC[C@H](C)N(C(C)=O)C3)n2)cnc1OC [Compound 00110, 1-((2S,5R)-5-(4-(5,6-dimethoxypyridin-3-yl)-6-((2-methylpyridin-4-yl)amino)pyrimidin-2-yl)-2-methylpiperidin-1-yl)ethan-1-one]",
< 200 nM,"COc1cncc(-c2cc(Nc3cccc(Cl)c3)nc([C@@H]3CC[C@H](C)N(C(C)=O)C3)n2)c1 [Compound 00074, 1-((2S,5R)-5-(4-((3-chlorophenyl)amino)-6-(5-methoxypyridin-3-yl)pyrimidin-2-yl)-2-methylpiperidin-1-yl)ethan-1-one]",
200 to 1000 nM,"CC(=O)N1C[C@H](c2nc(Nc3cccnc3)cc(-c3cccnc3)n2)CC[C@@H]1C (racemic) [Compound 00102, (+/−)-cis-1-(2-methyl-5-(4-(pyridin-3-yl)-6-(pyridin-3-ylamino)pyrimidin-2-yl)piperidin-1-yl)ethan-1-one]",
200 to 1000 nM,"CC(=O)N1C[C@H](c2nc(Nc3ccc(O)cc3)cc(-c3cccnc3)n2)CC[C@@H]1C [Compound 00071, 1-((2S,5R)-5-(4-((4-hydroxyphenyl)amino)-6-(pyridin-3-yl)pyrimidin-2-yl)-2-methylpiperidin-1-yl)ethan-1-one]",
200 to 1000 nM,"CC(=O)N1C[C@H](c2nc(Nc3cncc(C)c3)cc(-c3cncc(C4COC4)c3)n2)CC[C@@H]1C (racemic) [Compound 00100, (+/−)-c/s-1-(2-methyl-5-(4-((5-methylpyridin-3-yl)amino)-6-(5-(oxetan-3-yl)pyridin-3-yl)pyrimidin-2-yl)piperidin-1-yl)ethan-1-one]",
> 10000 nM,"CC(=O)N1C[C@H](c2nc(Nc3ccnc(C)c3)cc(-c3cncc(N4CC(C(N)=O)C4)c3)n2)CC[C@@H]1C [Compound 00114, 1-(5-(2-((3R,6S)-1-acetyl-6-methylpiperidin-3-yl)-6-((2-methylpyridin-4-yl)amino)pyrimidin-4-yl)pyridin-3-yl)azetidine-3-carboxamide]",
200 to 1000 nM,CC(=O)N1C[C@H](c2nc(Nc3ccncc3)cc(-c3cccnc3)n2)CC[C@@H]1C [Compound 00006],
,"CC(=O)N1C[C@H](c2nc(Nc3cccc(F)c3)cc(-c3cccnc3)n2)CC[C@@H]1C(F)F (racemic) [Compound 00025, (+/−)-c/s-1-(2-(difluoromethyl)-5-(4-((3-fluorophenyl)amino)-6-(pyridin-3-yl)pyrimidin-2-yl)piperidin-1-yl)ethan-1-one]","EC50 (A375 cells; Homo sapiens, A-375, 24 h): 1000 to 10000 nM"
,"CC(=O)N1C[C@H](c2nc(Nc3cncc(C)c3)cc(-c3cncnc3)n2)CC[C@@H]1C (racemic) [Compound 00097, (+/−)-c/s-1-(2-methyl-5-(6-((5-methylpyridin-3-yl)amino)-[4,5′-bipyrimidin]-2-yl)piperidin-1-yl)ethan-1-one]","EC50 (A375 cells; Homo sapiens, A-375, 24 h): 1000 to 10000 nM"
,"CC(=O)N1C[C@H](c2nc(Nc3cccc(C)c3)cc(-c3cccnc3)n2)CC[C@@H]1C(F)F (racemic) [Compound 00027, (+/−)-cis-1-(2-(difluoromethyl)-5-(4-(pyridin-3-yl)-6-(m-tolylamino)pyrimidin-2-yl)piperidin-1-yl)ethan-1-one]","EC50 (A375 cells; Homo sapiens, A-375, 24 h): 1000 to 10000 nM"
< 200 nM,"CC(=O)N1C[C@H](c2nc(Nc3ccc4nccnc4c3)cc(-c3cccnc3)n2)CC[C@@H]1C [Compound 00120, 1-((2S,5R)-2-methyl-5-(4-(pyridin-3-yl)-6-(quinoxalin-6-ylamino)pyrimidin-2-yl)piperidin-1-yl)ethan-1-one]",
,"CC[C@@H]1CC[C@@H](c2nc(Nc3cccc(C)c3)cc(-c3cccnc3)n2)CN1C(C)=O (racemic) [Compound 00019, (+/−)-frans-1-(2-ethyl-5-(4-(pyridin-3-yl)-6-(m-tolylamino)pyrimidin-2-yl)piperidin-1-yl)ethan-1-one]","EC50 (A375 cells; Homo sapiens, A-375, 24 h): > 10000 nM"
< 200 nM,[2H]C([2H])([2H])[C@H]1CC[C@@H](c2nc(Nc3cccc(F)c3)cc(-c3cccnc3)n2)CN1C(C)=O [Compound 00010],
> 10000 nM,"CC(=O)N1C[C@@H](c2nc(Nc3cncc(C)c3)cc(-c3cnccn3)n2)CC[C@H]1C [Compound 00002, 1-((2R,5S)-2-methyl-5-(4-((5-methylpyridin-3-yl)amino)-6-(pyrazin-2-yl)pyrimidin-2-yl)piperidin-1-yl)ethan-1-one]",
200 to 1000 nM,"CC(=O)N1C[C@H](c2nc(Nc3ccc4c(c3)B(O)OC4)cc(-c3cccnc3)n2)CC[C@@H]1C [Compound 00034, 1-((2S,5R)-5-(4-((1-hydroxy-1,3-dihydrobenzo[c][1,2]oxaborol-6-yl)amino)-6-(pyridin-3-yl)pyrimidin-2-yl)-2-methylpiperidin-1-yl)ethan-1-one]",
